The record followed here is the supplement of paper PMC8988213.

SMILES strings stand for the structures.

For experiment [1], the system named is ID188 patient-derived PDAC 2D line (pre-FOLFIRINOX). Description: normalised area under dose-response curve (viability relative to DMSO, 7 doses up to 10 µM) (fraction (AUC)); higher = less sensitive (more viability retained). The note with it: 72 h; top dose: 10 µM. Here is the method:
(§1)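 Patient-derived 2D PDAC cells (ID188 pre-FOLFIRINOX, passage 5+27; ID211 post-FOLFIRINOX, passage 9+11), 1,500-3,000 cells/well in 96-well plates, were treated with a 415-compound Selleck library in seven concentrations (3-fold dilution series, top 10 µM) for 72 h. Viability was read by CellTiter-Glo ATP luminescence, normalised to the DMSO control, and the area under the dose-response curve was computed with the GRmetrics R package; a lower AUC means higher sensitivity.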

Experiment [2] has as its system ID211 patient-derived PDAC 2D line (post-FOLFIRINOX). Described as above. The note with it: 72 h; top dose: 10 µM. Here is the method: as §1

Turning to `CC(=O)Nc1cccc(-n2c(=O)n(C3CC3)c(=O)c3c(Nc4ccc(I)cc4F)n(C)c(=O)c(C)c32)c1`, the results for the “normalised area under dose-response curve” value (“normalised area” below) in experiment [1] and in experiment [2] were 0.553 and 0.197, respectively.
With `CC(C)Nc1cc(-c2c[nH]c(C(=O)N[C@H](CO)c3cccc(Cl)c3)c2)c(Cl)cn1`, the entries for the “normalised area” value in experiment [1] and in experiment [2] were 0.881 and 0.687, respectively.
The corresponding values for `CCNC(=O)C#Cc1ccc2c(C(=Nc3ccc(CN(C)C)cc3)c3ccccc3)c(O)[nH]c2c1` are 0.621 and 0.264.
Turning to `CCOc1ccn(-c2ccc(F)cc2)c(=O)c1C(=O)Nc1ccc(Oc2ccnc(N)c2Cl)c(F)c1`, the “normalised area” value in experiment [1] stood at 0.882; in experiment [2] it was 0.945.
Regarding `CCn1c(=O)c(-c2cc[nH]n2)cc2c(C)nc(N)nc21`, the entries for the “normalised area” value in experiment [1] and in experiment [2] were 0.814 and 0.792, respectively.
As to `CN(C(=O)c1ccc(F)cc1C(F)(F)F)C1CCN(c2nnc(-c3ccnn3C)c3ccccc23)CC1`, the figures for the “normalised area” value in experiment [1] and in experiment [2] were 0.939 and 0.855, respectively.
For the compound `CN(C)CC#Cc1ccc(OCCCc2sc(N3CCc4cccc(C(=O)Nc5nc6ccccc6s5)c4C3)nc2C(=O)O)c(F)c1`, the “normalised area” value turned out to be 0.789 in experiment [1] and 0.592 in experiment [2].
With `C[C@@H](C(=O)Nc1ccc(Cl)cc1)C1CCC(c2ccnc3ccc(F)cc23)CC1` (some centres undefined), the “normalised area” value worked out at 0.882 in experiment [1] and 0.863 in experiment [2].
Taken in the same sequence, the figures for `C[C@@H](N)[C@H]1CC[C@H](C(=O)Nc2ccncc2)CC1` were 0.941 and 0.922.
For the compound `C[C@@H]1CCN(C(=O)CC#N)C[C@@H]1N(C)c1ncnc2[nH]ccc12`, the “normalised area” value was 0.759 in experiment [1] and 0.881 in experiment [2].
For the compound `Cc1cc2c(F)c(Oc3ncnn4cc(OC[C@@H](C)O)c(C)c34)ccc2[nH]1`, the “normalised area” value in experiment [1] stood at 0.918; in experiment [2] it was 0.813.
In the case of `Cc1ccc(C(=O)N(CCCN)[C@@H](c2oc3cc(Cl)ccc3c(=O)c2Cc2ccccc2)C(C)C)cc1`, the “normalised area” value in experiment [1] stood at 0.51; in experiment [2], 0.708.
In the case of `Cc1ccc(S(=O)(=O)Cc2nc(-c3ccc(C(=O)NCc4cccnc4)cc3)oc2C)cc1`, the entries for the “normalised area” value in experiment [1] and in experiment [2] were 0.358 and 0.275, respectively.
For `Cc1ccc2nc(NCCN)c3ncc(C)n3c2c1`, the “normalised area” value in experiment [1] was found to be 0.853; in experiment [2], 0.857.
With `Cc1nn(C)c(COc2ccc(N3CCN(S(=O)(=O)N(C)C)CC3)cc2)c1-c1cccc2c(CCCOc3cccc4ccccc34)c(C(=O)O)n(CCN3CCOCC3)c12`, the “normalised area” value in experiment [1] was found to be 0.98; in experiment [2] it was 0.938.
`Cn1cnc2c(F)c(Nc3ccc(Br)cc3F)c(C(=O)NOCCO)cc21`: the “normalised area” value in experiment [1] is 0.732; in experiment [2], 0.457.
On to `Cn1ncc(Cl)c1-c1cc(C(=O)N[C@H](CN)Cc2ccc(F)c(F)c2)oc1Cl`, for which the “normalised area” value in experiment [1] stood at 0.805; in experiment [2], 0.789.
Take `Nc1nc2c(cnn2CCc2ccccc2)c2nc(-c3ccco3)nn12`: the “normalised area” value in experiment [1] stood at 0.94; in experiment [2], 0.905.
For `Nc1nccc(Oc2ccc(NC(=O)c3c[nH]cc(-c4ccc(F)cc4)c3=O)cc2F)c1Cl`, the “normalised area” value in experiment [1] is 0.939; in experiment [2] it was 0.911.
Consider `O=S(=O)(N=Cc1c(O)ccc2ccccc12)c1cccs1`, for which the “normalised area” value came to 0.913 in experiment [1] and 0.941 in experiment [2].
The corresponding values for `O=c1[nH]c(C2CCCN2)nc2c1oc1ccc(Cl)cc12` (centres undefined) are 0.916 and 0.897.
With `Oc1c2ccccc2c2c3c(cccc13)N=N2`, the “normalised area” value was 0.881 in experiment [1] and 1.04 in experiment [2].
